Results from patent US10441562B2, “Aromatic farnesyl compound and application thereof” (INSTITUTE OF MICROBIOLOGY, CHINESE ACADEMY OF SCIENCES, priority 2015, dated 2019).
Like-named read-outs stand apart in the source and are kept apart here.

Columns and labels:
Format in all cases: biochemical
[1] = target: T1, α-glucosidase (Saccharomyces cerevisiae, UniProt P53341); assay: α-glucosidase inhibitory activity test in vitro
T1 construct: purchased Sigma Corporation G5003
Experimental: Add 25 μL α-glucosidase water solution (0.2 U/mL) and 175 μL phosphate buffer (50 mM, pH 7.0) into 25 μL different concentration of the above test solutions. The mixed solution is standed for 10 min at room temperature, and then 25 μL 4-nitrophenyl-α-D-glucopyranoside water solution (2.5 mM) is added into the mixed solution. After the solution is incubated at 37 °C for 30 min and centrifuged at 5000 rpm for 5 minutes, 150 uL supernatant is added into 96-well plates and the absorbance is detected at 405 nm.
Blank group: the test solution is replaced by 25 μL phosphate buffer (50 mM, pH 7.0); blank control group: the test solution is replaced by 25 μL phosphate buffer (50 mM, pH 7.0), meanwhile α-glucosidase water solution is replaced by 25 μL phosphate buffer (50 mM, pH 7.0); sample control group: α-glucosidase water solution is replaced by 25 μL phosphate buffer (50 mM, pH 7.0).
(§1) Repeat each of the above experiment groups for 3 times, and then average the results.
IC50=[CL(IH−50)+CH(50−IL)]/(IH−IL) CL: low concentration value; CH: high concentration value; IH: inhibition rate in high concentration; IL: inhibition rate in low concentration

[2] = target: T2, dipeptidyl peptidase-4 (Homo sapiens, UniProt P27487); assay: dipeptidyl peptidase-4 inhibitory activity test in vitro (DPP-4 inhibitor screening kit)
T2 construct: purchased
Text: The above compounds are detected by DPP-4 inhibitor screening kit.

[3] = target: T3, protein tyrosine phosphatase 1B (PTP-1B) (Homo sapiens, UniProt P18031); assay: PTP-1B inhibitory activity test in vitro
T3 sequence (P18031 1-435): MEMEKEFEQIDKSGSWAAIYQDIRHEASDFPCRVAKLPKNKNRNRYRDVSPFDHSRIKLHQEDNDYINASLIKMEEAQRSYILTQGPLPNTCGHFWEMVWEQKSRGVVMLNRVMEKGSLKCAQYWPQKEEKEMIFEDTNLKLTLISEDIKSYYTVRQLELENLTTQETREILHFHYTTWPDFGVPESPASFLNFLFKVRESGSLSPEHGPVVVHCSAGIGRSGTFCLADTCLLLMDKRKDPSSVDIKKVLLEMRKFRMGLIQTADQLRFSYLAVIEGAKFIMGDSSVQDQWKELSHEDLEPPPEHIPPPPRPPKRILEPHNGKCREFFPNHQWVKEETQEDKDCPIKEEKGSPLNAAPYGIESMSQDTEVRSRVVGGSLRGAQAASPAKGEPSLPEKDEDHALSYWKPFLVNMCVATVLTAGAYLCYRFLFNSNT
Experimental: Experimental procedure: the following reagents are added into 96-well plates in sequence and the mixture ratios of different groups are as followings: Test group: 50 μL compound solution+50 μL 170 μg/mL PTP-1B solution […] Blank group: 50 μL buffer solution+50 μL 170 μg/mL PTP-1B solution Background group: 50 μL compound solution+50 μL buffer solution After adding the reagents, the 96-well plate is […] for 10 min at room temperature to make the compound and the enzyme react completely. Add 50 μL 1 mM pNPP solution which is used as substrate and incubate the mixed solution at 37 °C for 30 min. Then add 50 μL 3M NaOH into each well of the plate to stop the reaction and the optical density is detected at […].

[4] = target: aldose reductase (Homo sapiens, UniProt P15121); assay: aldose reductase inhibitory activity test in vitro
Experimental: Experimental procedure: the following reagents are added into 96-well plates in sequence and the mixture ratios of different groups are as followings:
Test group: 10 μL compound solution+25 μL (0.1 mM) NADPH solution+25 μL PBS buffer solution+15 μL aldose reductase diluent
Blank group: 25 μL (0.1 mM) NADPH solution+35 μL PBS buffer solution+15 μL aldose reductase diluent
Background group: 25 μL (0.1 mM) NADPH solution+60 μL PBS buffer solution+15 μL aldose reductase diluent
After adding the reagents, the 96-well plate is standed for 10 min at room temperature to make the compound and the enzyme react completely. Add 25 μL 10 mM D, L glyceraldehyde solution which is used as substrate into the groups except for background group, and incubate the solution at 37 °C for 30 min. Then detect the optical density of each well at 340 nm.

[5] = target: T4, HMG-CoA reductase (Homo sapiens, UniProt P04035); assay: HMG-CoA reductase inhibitory activity test in vitro
T4 sequence (P04035 426-888 limits assumed): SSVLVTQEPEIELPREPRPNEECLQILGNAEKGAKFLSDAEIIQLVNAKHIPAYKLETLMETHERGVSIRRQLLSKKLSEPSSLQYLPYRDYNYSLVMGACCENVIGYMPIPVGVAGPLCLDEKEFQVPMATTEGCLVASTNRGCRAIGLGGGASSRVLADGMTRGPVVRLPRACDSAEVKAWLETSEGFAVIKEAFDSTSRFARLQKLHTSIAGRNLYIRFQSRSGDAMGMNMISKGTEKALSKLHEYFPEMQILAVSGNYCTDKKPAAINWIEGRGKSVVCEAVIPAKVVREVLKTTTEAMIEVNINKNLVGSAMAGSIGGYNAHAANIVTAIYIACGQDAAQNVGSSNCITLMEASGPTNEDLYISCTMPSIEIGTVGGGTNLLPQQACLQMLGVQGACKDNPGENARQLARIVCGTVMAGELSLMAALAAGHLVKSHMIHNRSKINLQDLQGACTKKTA
Experimental: Add 25 μL HMG-CoA reductase water solution (0.2 U/mL), 25 μL NADPH water solution (0.2 U/mL) and 24 μL phosphate buffer (50 mM, pH 7.0) into 1 μL different concentration of the above test solution. The mixed solution is standed for 10 min at room temperature, and then 25 μL HMG-CoA is added into the mixed solution. After the solution is incubated at 37∞ for 30 min and centrifuged at 5000 rpm for 5 minutes, 80 uL supernatant is added into 96-well plates and the absorbance is detected at 550 nm.
as §1

[6] = read-out: α-glucosidase inhibitory activity (IC50)

T2 sequence (P27487 whole entry, species assumed): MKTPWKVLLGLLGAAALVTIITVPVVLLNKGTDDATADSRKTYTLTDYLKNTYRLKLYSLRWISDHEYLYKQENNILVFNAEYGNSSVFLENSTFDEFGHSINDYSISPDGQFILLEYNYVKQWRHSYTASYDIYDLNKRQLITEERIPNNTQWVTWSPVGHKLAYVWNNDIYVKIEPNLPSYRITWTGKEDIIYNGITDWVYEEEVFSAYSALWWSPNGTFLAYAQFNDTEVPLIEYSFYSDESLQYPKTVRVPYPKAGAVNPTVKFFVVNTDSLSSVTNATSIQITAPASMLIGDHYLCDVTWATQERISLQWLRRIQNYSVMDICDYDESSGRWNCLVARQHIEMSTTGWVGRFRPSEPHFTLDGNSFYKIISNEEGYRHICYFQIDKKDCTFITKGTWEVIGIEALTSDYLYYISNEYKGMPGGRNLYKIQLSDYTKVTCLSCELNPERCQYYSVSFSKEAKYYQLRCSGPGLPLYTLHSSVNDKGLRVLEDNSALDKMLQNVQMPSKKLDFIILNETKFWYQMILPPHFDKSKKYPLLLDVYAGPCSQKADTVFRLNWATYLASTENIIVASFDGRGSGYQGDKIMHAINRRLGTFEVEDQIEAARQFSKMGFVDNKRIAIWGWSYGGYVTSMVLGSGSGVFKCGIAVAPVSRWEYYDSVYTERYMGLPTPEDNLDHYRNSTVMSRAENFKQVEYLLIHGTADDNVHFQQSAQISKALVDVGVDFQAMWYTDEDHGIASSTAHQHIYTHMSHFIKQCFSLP
T1 sequence (P53341 whole entry): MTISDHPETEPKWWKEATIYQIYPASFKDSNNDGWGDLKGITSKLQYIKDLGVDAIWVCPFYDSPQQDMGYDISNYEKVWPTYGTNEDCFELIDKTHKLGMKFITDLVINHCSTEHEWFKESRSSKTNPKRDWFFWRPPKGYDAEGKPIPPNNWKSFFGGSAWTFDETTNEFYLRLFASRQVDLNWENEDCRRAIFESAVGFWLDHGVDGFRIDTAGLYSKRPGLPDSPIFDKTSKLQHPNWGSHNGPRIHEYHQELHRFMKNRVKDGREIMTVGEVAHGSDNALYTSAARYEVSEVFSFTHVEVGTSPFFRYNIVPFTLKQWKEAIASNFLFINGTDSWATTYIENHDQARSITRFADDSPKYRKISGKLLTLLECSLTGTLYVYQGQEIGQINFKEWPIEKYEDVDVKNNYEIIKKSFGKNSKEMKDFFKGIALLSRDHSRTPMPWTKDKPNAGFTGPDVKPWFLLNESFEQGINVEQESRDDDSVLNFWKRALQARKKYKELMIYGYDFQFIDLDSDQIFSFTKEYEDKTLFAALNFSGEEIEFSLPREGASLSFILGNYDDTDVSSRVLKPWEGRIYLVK

Row | SMILES | IC50 [1, 6] [µM] | IC50 [2] [µM] | IC50 [3] [µM] | IC50 [4] [µM] | IC50 [5] [µM] | IC50 [1] [µM]
1 | COc1ccc([C@H]2C=C(CC/C=C(\C)CCC=C(C)C)C(=O)O2)cc1 [S10, (R,E)-3-(4,8-dimethylnona-3,7-dien-1-yl)-5-(4-methoxyphenyl)furan-2(5H)-one] | > 50 | 18.2 | 10.1 | > 100 | 1.2 | –
2 | CC(C)=CCC/C(C)=C/CCC1=C[C@@H](c2ccc(C(C)C)cc2)OC1=O [S23, (S,E)-3-(4,8-dimethylnona-3,7-dien-1-yl)-5-(4-isopropylphenyl)furan-2(5H)-one] | 49.2 | 8.8 | 9.6 | 93.1 | 87.2 | –
3 | COc1ccc(OC)c([C@@H]2C=C(CC/C=C(\C)CCC=C(C)C)C(=O)O2)c1 [S27, (S,E)-5-(2,5-dimethoxyphenyl)-3-(4,8-dimethylnona-3,7-dien-1-yl)furan-2(5H)-one] | 15.3 | 8.6 | 12.3 | 25.2 | 4.4 | –
4 | CC(C)=CCC/C(C)=C/CCC1=C[C@H](c2ccccc2)OC1=O [S1, (R,E)-3-(4,8-dimethylnona-3,7-dien-1-yl)-5-phenylfuran-2 (5H)-one] | 0.18 | 12.2 | 10.5 | 56.1 | 3.8 | –
5 | COC1(c2cc(O)ccc2O)C=C(CC/C=C(\C)CCC=C(C)C)C(=O)O1 (stereo not shown) [S31, (E)-5-(2,5-dihydroxyphenyl)-3-(4,8-dimethylnona-3,7-dien-1-yl)-5-meth oxyfuran-2(5H)-one] | – | 15.4 | 15.4 | 87.6 | 32.3 | 3.23
6 | CC(C)=CCC/C(C)=C/CC/C(=C/Cc1cc(O)ccc1O)C(=O)O [S34, (2Z,5E)-2-(2-(2,5-dihydroxyphenyl)ethylidene)-6,10-dimethylundeca-5,9-dienoic acid] | 0.98 | 15.2 | 12.9 | 8.7 | 12.6 | –
7 | CC(C)=CCC/C(C)=C/CCC1=C[C@@H](c2ccccc2[N+](=O)[O-])OC1=O [S20, (S,E)-3-(4,8-dimethylnona-3,7-dien-1-yl)-5-(2-nitrophenyl)furan-2(5H)-one] | 0.21 | 20.8 | 4.7 | 9.5 | 13.8 | –
8 | CC(C)=CCC/C(C)=C/CCC1=C[C@H](c2c(F)cccc2F)OC1=O [S14, (R,E)-5-(2,6-difluorophenyl)-3-(4,8-dimethylnona-3,7-dien-1-yl)furan-2(5H)-one] | 3.72 | 24.5 | 3.7 | 32.1 | 25.1 | –
9 | CC(C)=CCC/C(C)=C/CCC1=C[C@H](c2ccc(C(C)(C)C)cc2)OC1=O [S9, (R,E)-5-(4-(tert-butyl)phenyl)-3-(4,8-dimethylnona-3,7-dien-1-yl)furan-2 (5H)-one] | 0.16 | 19.1 | 15.8 | 1.4 | 16.4 | –
10 | CC(C)=CCC/C(C)=C/CCC1=C[C@@H](c2ccc(C)cc2)OC1=O [S21, (S,E)-3-(4,8-dimethylnona-3,7-dien-1-yl)-5-(p-tolyl)furan-2(5H)-one] | 1.03 | 16.5 | 5.8 | 55.1 | 12.5 | –
11 | CC(C)=CCC/C(C)=C/CCC(CC(=O)c1cc(O)ccc1O)C(=O)O (stereo not shown) [S36, (E)-2-(2-(2,5-dihydroxyphenyl)-2-oxoethyl)-6,10-dimethylundeca-5,9-dienoic acid] | – | 21.8 | 11.4 | 6.3 | 4.2 | 3.2
12 | CC(C)=CCC/C(C)=C/CC/C(=C/C(=O)c1cc(O)ccc1O)C(=O)O [S32, (2Z,5E)-2-(2-(2,5-dihydroxyphenyl)-2-oxoethylidene)-6,10-dimethylundeca-5,9-dienoic acid] | 5.43 | 21.2 | 7.6 | 34.9 | 5.4 | –
13 | CC(C)=CCC/C(C)=C/CCC1=C[C@H](c2ccccc2[N+](=O)[O-])OC1=O [S5, (R,E)-3-(4,8-dimethylnona-3,7-dien-1-yl)-5-(2-nitrophenyl)furan-2(5H)-one] | 0.09 | 20.9 | 5.3 | 8.5 | 18.9 | –
14 | C/C(=C\CC/C(C)=C/CC/C(=C/Cc1cc(O)ccc1O)C(=O)O)CO [S33, (2Z,5E,9E)-2-(2-(2,5-dihydroxyphenyl)ethylidene)-11-hydroxy-6,10-dimethylundeca-5,9-dienoic acid] | – | 18.7 | 4.5 | 23.1 | 32.9 | 12.2
15 | CC(C)=CCC/C(C)=C/CCC1=C[C@@H](c2ccc([N+](=O)[O-])cc2)OC1=O [S26, (S,E)-3-(4,8-dimethylnona-3,7-dien-1-yl)-5-(4-nitrophenyl)furan-2(5H)-one] | 30.3 | 10.6 | 9.8 | 5.3 | 7.5 | –
16 | COCOc1ccccc1[C@@H]1C=C(CC/C=C(\C)CCC=C(C)C)C(=O)O1 [S18, (S,E)-3-(4,8-dimethylnona-3,7-dien-1-yl)-5-(2-(methoxymethoxy)phenyl) furan-2(5H)-one] | 8.2 | 14.4 | 8.2 | 40.2 | 6.2 | –
17 | CC(C)=CCC/C(C)=C/CCC1=C[C@@H](c2c(F)cccc2F)OC1=O [S29, (S,E)-5-(2,6-difluorophenyl)-3-(4,8-dimethylnona-3,7-dien-1-yl)furan-2(5H)-one] | 3.95 | 23.5 | 4.4 | 33.5 | 16.8 | –
18 | CC(C)=CCC/C(C)=C/CCC1=C[C@H](c2ccc(C(C)C)cc2)OC1=O [S8, (R,E)-3-(4,8-dimethylnona-3,7-dien-1-yl)-5-(4-isopropylphenyl)furan-2(5H)-one] | 56.2 | 9.4 | 12.7 | 84.4 | > 100 | –
19 | CC(C)c1c(C(=O)Nc2ccccc2)c(-c2ccccc2)c(-c2ccc(F)cc2)n1CC[C@@H](O)C[C@@H](O)CC(=O)O [atorvastatin, reference compound] | – | – | – | – | – | 273
